Reference: the NIST ThermoML archive (doi:10.1016/j.jct.2015.09.029)
Numbers after ± are expanded uncertainties.

Legend:
[1] = mn = molality of the nth substance listed, in mol/kg; conditions: 100 kPa, Liquid; for viscosity: Capillary tube (Ostwald / Ubbelohde) method; for speed of sound: Frequency=2 MHz, Linear variable-path acoustic interferometer
[2] = 100 kPa, Liquid, Capillary tube (Ostwald / Ubbelohde) method

viscosity ([1]; 298.15 K, m2 = 0) [mPa·s] | speed of sound ([1]; 298.15 K, m2 = 0) [m/s] | viscosity ([1]; 303.15 K, m2 = 0) [mPa·s] | viscosity ([1]; 308.15 K, m2 = 0) [mPa·s] | viscosity ([1]; 313.15 K, m2 = 0) [mPa·s] | speed of sound ([1]; 313.15 K, m2 = 0) [m/s] | Compound | other results
0.8905 ± 0.019 | 1497.6 ± 4.3 | 0.7977 ± 0.017 | 0.7195 ± 0.015 | 0.6532 ± 0.014 | 1528.5 ± 4.3 | O [water] + CCCC[P+](C)(CCCC)CCCC.COS(=O)(=O)[O-] | 
0.8905 ± 0.019 |  |  |  |  |  | O [water] + CCCCn1cc[n+](C)c1.[Cl-] | 
 |  |  |  |  |  | O [water] | viscosity ([2]; 298.15 K): 0.8905 ± 0.019 mPa·s; viscosity ([2]; 303.15 K): 0.7977 ± 0.017 mPa·s; viscosity ([2]; 308.15 K): 0.7195 ± 0.015 mPa·s; viscosity ([2]; 313.15 K): 0.6532 ± 0.014 mPa·s
 |  |  |  |  |  | CCCCn1cc[n+](C)c1.[Cl-] [1-butyl-3-methylimidazolium chloride] + O | viscosity ([1]; 298.15 K, m1 = 0.0155): 0.8976 ± 0.019 mPa·s; viscosity ([1]; 298.15 K, m1 = 0.0257): 0.9023 ± 0.019 mPa·s; viscosity ([1]; 298.15 K, m1 = 0.0567): 0.9166 ± 0.019 mPa·s; viscosity ([1]; 298.15 K, m1 = 0.0653): 0.9205 ± 0.019 mPa·s; viscosity ([1]; 298.15 K, m1 = 0.0782): 0.9265 ± 0.019 mPa·s; viscosity ([1]; 298.15 K, m1 = 0.0895): 0.9317 ± 0.019 mPa·s; viscosity ([1]; 298.15 K, m1 = 0.0923): 0.933 ± 0.019 mPa·s; viscosity ([1]; 298.15 K, m1 = 0.1052): 0.9389 ± 0.02 mPa·s; viscosity ([1]; 298.15 K, m1 = 0.1123): 0.9422 ± 0.02 mPa·s
0.8905 ± 0.019 | 1497.6 ± 4.3 | 0.7977 ± 0.017 | 0.7195 ± 0.015 | 0.6532 ± 0.014 | 1528.5 ± 4.3 | O [water] + CCCC[P+](CCCC)(CCCC)CCCC.[Cl-] | 

Compound | viscosity ([1]; 298.15 K, m2 = 0) [mPa·s] | speed of sound ([1]; 298.15 K, m2 = 0) [m/s] | viscosity ([1]; 303.15 K, m2 = 0) [mPa·s] | viscosity ([1]; 308.15 K, m2 = 0) [mPa·s] | viscosity ([1]; 313.15 K, m2 = 0) [mPa·s] | speed of sound ([1]; 313.15 K, m2 = 0) [m/s] | other results
O [water] + CC(C)C[P+](C)(CC(C)C)CC(C)C.Cc1ccc(S(=O)(=O)[O-])cc1 | 0.8905 ± 0.019 | 1497.6 ± 4.3 | 0.7977 ± 0.017 | 0.7195 ± 0.015 | 0.6532 ± 0.014 | 1528.5 ± 4.3 | 
